The values below come from PMC8230315, “A Pan-Inhibitor for Protein Arginine Methyltransferase Family Enzymes” (Biomolecules, 2021).

As a reminder, the IC50 is the concentration that gives 50% inhibition. A higher IC50 goes with a need for much substance.

Common to all, as to type: biochemical
One experiment addresses T1, PRMT6 (Homo sapiens, UniProt Q96LA8).
T1 construct: purchased Reaction Biology
Briefly: HotSpot radioisotope 3H-AdoMet methyltransferase assay, PRMT6. As to the method: (§1) Future studies will focus on obtaining structural information of II757 bound to PRMTs to inform how to connect to a substrate portion to increase both potency and selectivity for each PRMT.
(§2) Figure 6 Selectivity of II757 against the panel of PRMTs. II757 was tested in 10 doses with threefold serial dilution in the HotSpot methyltransferase assay at reaction biology. TEXT PRINTED IN THE PICTURE: II757: IC50 (nM) PRMT1: 16.4; IC50 (nM) PRMT3: 321; IC50 (nM) PRMT4: 5.05; IC50 (nM) PRMT5/MEP50 Complex: 18.2; IC50 (nM) PRMT5 (C449S)/MEP50: 36.6; IC50 (nM) PRMT6: 30.5; IC50 (nM) PRMT7: 555; IC50 (nM) PRMT8: 32.1

For another experiment, the target named is T2, PRMT4 (Homo sapiens, UniProt Q86X55).
T2 construct: purchased Reaction Biology
T2 sequence (Q86X55 1-608): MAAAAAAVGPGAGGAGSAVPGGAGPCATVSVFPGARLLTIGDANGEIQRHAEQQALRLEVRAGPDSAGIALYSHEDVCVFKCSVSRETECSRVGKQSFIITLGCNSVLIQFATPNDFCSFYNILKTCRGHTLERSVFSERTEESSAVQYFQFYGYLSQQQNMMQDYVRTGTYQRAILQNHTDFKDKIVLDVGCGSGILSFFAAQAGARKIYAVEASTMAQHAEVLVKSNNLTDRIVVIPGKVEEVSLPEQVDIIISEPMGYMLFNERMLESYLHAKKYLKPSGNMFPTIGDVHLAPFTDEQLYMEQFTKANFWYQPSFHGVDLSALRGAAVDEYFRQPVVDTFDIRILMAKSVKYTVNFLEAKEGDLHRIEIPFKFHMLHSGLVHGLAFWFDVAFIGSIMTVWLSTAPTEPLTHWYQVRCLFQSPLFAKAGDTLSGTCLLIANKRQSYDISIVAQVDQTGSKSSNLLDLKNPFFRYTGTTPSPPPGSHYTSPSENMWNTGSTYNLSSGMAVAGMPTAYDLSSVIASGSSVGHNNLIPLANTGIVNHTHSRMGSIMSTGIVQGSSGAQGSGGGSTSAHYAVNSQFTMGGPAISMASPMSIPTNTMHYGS
In words: HotSpot radioisotope 3H-AdoMet methyltransferase assay, PRMT4. Conditions: IC50 (nM) PRMT4, 10 doses, threefold serial dilution. Here is the method:
as §1, §2

The next experiment deals with NTMT1. Briefly: Selectivity SAHH-coupled fluorescence assay, NTMT1. The source says: (§3) We chose the top four potent compounds (6b and 6l–n) to investigate their selectivities against several in-house methyltransferases including protein arginine methyltransferase TbPRMT7, two members of the protein lysine methyltransferase PKMT (G9a and SETD7), protein N-terminal methyltransferase 1 (NTMT1), and a small molecule methyltransferase nicotinamide N-methyltransferase (NNMT), all of which have a SAM binding site.
(§4) A fluorescence-based SAHH-coupled assay was applied to study the effect of the compound on methyltransferase activity of PRMT7, NTMT1, SETD7, G9a, NNMT, and SAHH. For PRMT7, the assay was performed in a final well volume of 100 μL: 25 mM Tris (pH = 7.5), 50 mM KCl, 0.01% Triton X-100, 5 μM SAHH, 0.2 μM PRMT7, 3 μM AdoMet, and 15 μM ThioGlo1. After incubation for 10 min with the inhibitor, reactions were initiated by the addition of 60 μM H4-21 peptide, and the reaction was monitored for 15 min. […] After incubation for 10 min with the inhibitor, reactions were initiated by the addition of 0.5 μM GPKRIA peptide, and the reaction was monitored for 15 min. […] After incubation for 10 min with the inhibitor, reactions were initiated by the addition of 90 μM H3-21 peptide, and the reaction was monitored for 15 min. […] After incubation for 10 min with the inhibitor, reactions were initiated by the addition of 10 μM nicotinamide, and the reaction was monitored for 18 min. […]

The target of the next experiment is T3, PRMT8 (Homo sapiens, UniProt Q9NR22).
T3 construct: purchased Reaction Biology
T3 sequence (Q9NR22 whole entry): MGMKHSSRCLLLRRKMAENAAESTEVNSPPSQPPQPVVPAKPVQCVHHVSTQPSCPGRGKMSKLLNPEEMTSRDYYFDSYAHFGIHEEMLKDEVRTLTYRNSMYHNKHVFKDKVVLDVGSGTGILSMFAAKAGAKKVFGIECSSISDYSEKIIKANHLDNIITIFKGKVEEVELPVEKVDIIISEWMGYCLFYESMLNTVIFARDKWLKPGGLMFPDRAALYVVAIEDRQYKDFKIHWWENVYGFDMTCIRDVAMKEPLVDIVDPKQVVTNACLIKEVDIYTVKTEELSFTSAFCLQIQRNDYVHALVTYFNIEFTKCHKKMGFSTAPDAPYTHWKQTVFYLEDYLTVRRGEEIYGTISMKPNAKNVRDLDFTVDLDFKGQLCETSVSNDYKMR
In words: HotSpot radioisotope 3H-AdoMet methyltransferase assay, PRMT8. Here is the method:
as §1, §2

A further experiment deals with PRMT1 (Homo sapiens, UniProt Q99873). Briefly: HotSpot radioisotope 3H-AdoMet methyltransferase assay (Reaction Biology), PRMT1. As to the method:
as §1, §2

In a further experiment the test system is NNMT. In words: Selectivity SAHH-coupled fluorescence assay, NNMT.
From the text: as §3, §4

The test system of another experiment is G9a. Briefly: Selectivity SAHH-coupled fluorescence assay, G9a.
From the text: as §3, §4

The target of the next experiment is T4, PRMT5/MEP50 Complex (Homo sapiens, UniProt O14744).
T4 construct: purchased Reaction Biology
T4 sequence (O14744 whole entry): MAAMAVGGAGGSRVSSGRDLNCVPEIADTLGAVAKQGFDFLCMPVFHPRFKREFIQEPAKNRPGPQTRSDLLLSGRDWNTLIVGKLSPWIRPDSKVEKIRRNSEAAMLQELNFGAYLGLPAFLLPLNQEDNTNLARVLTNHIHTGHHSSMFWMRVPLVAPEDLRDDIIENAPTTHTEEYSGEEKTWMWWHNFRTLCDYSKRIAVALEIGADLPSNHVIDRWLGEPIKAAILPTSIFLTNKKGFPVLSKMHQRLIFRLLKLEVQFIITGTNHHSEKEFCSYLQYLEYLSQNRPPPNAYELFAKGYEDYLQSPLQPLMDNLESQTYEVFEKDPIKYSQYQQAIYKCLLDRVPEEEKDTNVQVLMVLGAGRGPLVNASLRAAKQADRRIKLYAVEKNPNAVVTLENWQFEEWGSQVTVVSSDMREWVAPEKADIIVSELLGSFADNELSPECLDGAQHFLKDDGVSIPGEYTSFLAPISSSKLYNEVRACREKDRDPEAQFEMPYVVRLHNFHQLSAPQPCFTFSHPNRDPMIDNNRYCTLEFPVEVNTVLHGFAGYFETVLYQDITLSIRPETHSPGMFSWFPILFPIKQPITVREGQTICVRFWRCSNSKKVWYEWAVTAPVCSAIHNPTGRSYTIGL
T4 sequence (Q9BQA1 whole entry partner): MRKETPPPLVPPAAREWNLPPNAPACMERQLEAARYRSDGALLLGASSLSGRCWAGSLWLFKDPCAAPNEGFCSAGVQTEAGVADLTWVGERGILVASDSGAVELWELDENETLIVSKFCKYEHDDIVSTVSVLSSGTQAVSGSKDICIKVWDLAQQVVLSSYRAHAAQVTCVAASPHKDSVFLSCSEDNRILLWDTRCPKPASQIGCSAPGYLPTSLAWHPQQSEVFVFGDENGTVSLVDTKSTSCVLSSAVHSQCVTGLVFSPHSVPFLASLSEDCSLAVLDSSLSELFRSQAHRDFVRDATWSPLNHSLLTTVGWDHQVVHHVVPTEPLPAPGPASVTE
In words: HotSpot radioisotope 3H-AdoMet methyltransferase assay, PRMT5/MEP50. As to the method: as §1, §2

A further experiment has as its target T5, TbPRMT7 (Trypanosoma brucei brucei, UniProt Q582G4).
T5 construct: made in house
Briefly: Selectivity SAHH-coupled fluorescence assay, TbPRMT7. As to conditions: at 1.2 μM.
From the text: as §3, §4

In the next experiment the target is T6, SETD7 (Homo sapiens, UniProt Q8WTS6).
T6 construct: made in house
T6 sequence (Q8WTS6 1-366): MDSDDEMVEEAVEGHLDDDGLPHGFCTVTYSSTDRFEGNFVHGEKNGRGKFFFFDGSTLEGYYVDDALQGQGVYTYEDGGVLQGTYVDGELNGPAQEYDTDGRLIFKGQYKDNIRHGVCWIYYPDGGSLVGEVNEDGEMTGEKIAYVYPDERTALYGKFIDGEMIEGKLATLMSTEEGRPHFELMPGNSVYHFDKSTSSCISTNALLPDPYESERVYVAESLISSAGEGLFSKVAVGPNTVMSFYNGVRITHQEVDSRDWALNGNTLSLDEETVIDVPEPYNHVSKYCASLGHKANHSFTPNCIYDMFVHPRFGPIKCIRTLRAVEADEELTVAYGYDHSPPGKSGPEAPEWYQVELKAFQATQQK
In words: Selectivity SAHH-coupled fluorescence assay, SETD7.
From the text: as §3
A fluorescence-based SAHH-coupled assay was applied to study the effect of the compound on methyltransferase activity of PRMT7, NTMT1, SETD7, G9a, NNMT, and SAHH. For PRMT7, the assay was performed in a final well volume of 100 μL: 25 mM Tris (pH = 7.5), 50 mM KCl, 0.01% Triton X-100, 5 μM SAHH, 0.2 μM PRMT7, 3 μM AdoMet, and 15 μM ThioGlo1. After incubation for 10 min with the inhibitor, reactions were initiated by the addition of 60 μM H4-21 peptide, and the reaction was monitored for 15 min. For NTMT1, the assay was performed in a final well volume of 100 μL: 25 mM Tris (pH = 7.5), 50 mM KCl, 0.01% Triton X-100, 5 μM SAHH, 0.1 μM NTMT1, 3 μM AdoMet, and 10 μM ThioGlo4. After incubation for 10 min with the inhibitor, reactions were initiated by the addition of 0.5 μM GPKRIA peptide, and the reaction was monitored for 15 min. For SETD7, the assay was performed in a final well volume of 100 μL: 25 mM potassium phosphate buffer (pH = 7.6), 0.01% Triton X-100, 5 μM SAHH, 1 μM SETD7, 2 μM AdoMet, and 10 μM ThioGlo1. After incubation for 10 min with the inhibitor, reactions were initiated by the addition of 90 μM H3-21 peptide, and the reaction was monitored for 15 min. For G9a, the assay was performed in a final well volume of 100 μL: 25 mM potassium phosphate buffer (pH = 7.6), 1 mM EDTA, 2 mM MgCl2, 0.01% Triton X-100, 5 μM SAHH, 0.1 μM His-G9a, 10 μM AdoMet, and 10 μM ThioGlo4. For NNMT, the assay was performed in a final well volume of 100 μL: 25 mM Tris (pH = 7.5), 50 mM KCl, 0.01% Triton X- 100, 5 μM SAHH, 0.1 μM NNMT, 10 μM AdoMet, and 10 μM ThioGlo1. After incubation for 10 min with the inhibitor, reactions were initiated by the addition of 10 μM nicotinamide, and the reaction was monitored for 18 min. The inhibitors were added at five concentrations: 100, 33.3, 11.1, 3.7, and 1.2 μM.

Sequence of PRMT1 (Q99873 whole entry, species assumed): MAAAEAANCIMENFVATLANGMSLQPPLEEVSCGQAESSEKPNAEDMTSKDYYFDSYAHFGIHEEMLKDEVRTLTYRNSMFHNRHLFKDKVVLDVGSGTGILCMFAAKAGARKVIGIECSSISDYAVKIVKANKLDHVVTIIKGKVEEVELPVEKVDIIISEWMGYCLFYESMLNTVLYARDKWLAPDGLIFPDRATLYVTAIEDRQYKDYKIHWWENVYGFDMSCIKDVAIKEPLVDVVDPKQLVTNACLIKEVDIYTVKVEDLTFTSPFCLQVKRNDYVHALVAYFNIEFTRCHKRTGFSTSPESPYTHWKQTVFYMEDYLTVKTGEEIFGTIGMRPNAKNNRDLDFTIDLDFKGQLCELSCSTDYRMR
T1 sequence (Q96LA8 whole entry): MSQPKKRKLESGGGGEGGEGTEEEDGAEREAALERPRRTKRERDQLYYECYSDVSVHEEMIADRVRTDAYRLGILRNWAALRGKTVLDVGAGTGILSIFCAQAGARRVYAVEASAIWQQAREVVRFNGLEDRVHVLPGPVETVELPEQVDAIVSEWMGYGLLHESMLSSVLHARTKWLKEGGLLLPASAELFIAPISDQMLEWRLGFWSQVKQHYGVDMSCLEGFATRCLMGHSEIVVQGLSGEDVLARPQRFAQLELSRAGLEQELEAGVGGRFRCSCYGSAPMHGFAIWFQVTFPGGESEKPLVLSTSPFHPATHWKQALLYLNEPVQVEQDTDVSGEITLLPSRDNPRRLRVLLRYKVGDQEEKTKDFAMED
T5 sequence (Q582G4 whole entry): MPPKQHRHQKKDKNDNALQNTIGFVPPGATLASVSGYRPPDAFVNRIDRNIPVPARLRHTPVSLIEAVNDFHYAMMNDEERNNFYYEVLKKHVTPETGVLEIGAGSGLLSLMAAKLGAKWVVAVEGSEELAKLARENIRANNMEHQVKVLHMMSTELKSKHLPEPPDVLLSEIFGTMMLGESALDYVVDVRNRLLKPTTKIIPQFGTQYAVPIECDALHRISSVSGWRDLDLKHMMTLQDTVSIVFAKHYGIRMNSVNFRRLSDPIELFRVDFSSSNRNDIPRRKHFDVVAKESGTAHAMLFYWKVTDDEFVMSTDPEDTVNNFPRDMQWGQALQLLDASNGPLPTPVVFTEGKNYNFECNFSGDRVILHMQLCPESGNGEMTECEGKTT

In the case of `N=C(NCCCSC[C@H]1O[C@@H](n2cnc3c(N)ncnc32)[C@H](O)[C@@H]1O)Nc1cccc(Br)c1` [Compound 6l, 1-(3-((((2S,3S,4R,5R)-5-(6-amino-9H-purin-9-yl)-3,4-dihydroxytetrahydrofuran-2-yl)methyl)thio)propyl)-3-(3-bromophenyl)guanidine], the concentration for half-maximal inhibition (IC50) stood at 30.5 nM at PRMT6; 5 nM against PRMT4; 32.1 nM against PRMT8; 16.4 nM at PRMT1; 18.2 nM against PRMT5/MEP50 Complex. The “selectivity over NTMT1” value in the experiment on NTMT1 is “over 1000 fold”. In the experiment on NNMT, the “selectivity over NNMT” value is recorded as “over 1000 fold”. Besides, the “selectivity over G9a” value in the experiment on G9a was “over 1000 fold”. Moreover, the “activity against PRMT7” value on TbPRMT7 was “about 30%”. Further, the “selectivity over SETD7” value on SETD7 was “over 1000 fold”.
